{"source": "patent US8933230B2", "about": "“Phosphorus-containing group-substituted quinoline, its preparation process, medical composition containing the compounds and application” (priority 2011, dated 2015)", "test_in_all_cases": "KinomeScan kinase panel", "format_in_all_cases": "binding", "key": {"[1]": {"molecular_target": "T1, MET (Homo sapiens, UniProt P08581)", "T1 construct": "purchased DiscoveRx Corporation (KinomeScan)", "T1 sequence (P08581 25-1390)": "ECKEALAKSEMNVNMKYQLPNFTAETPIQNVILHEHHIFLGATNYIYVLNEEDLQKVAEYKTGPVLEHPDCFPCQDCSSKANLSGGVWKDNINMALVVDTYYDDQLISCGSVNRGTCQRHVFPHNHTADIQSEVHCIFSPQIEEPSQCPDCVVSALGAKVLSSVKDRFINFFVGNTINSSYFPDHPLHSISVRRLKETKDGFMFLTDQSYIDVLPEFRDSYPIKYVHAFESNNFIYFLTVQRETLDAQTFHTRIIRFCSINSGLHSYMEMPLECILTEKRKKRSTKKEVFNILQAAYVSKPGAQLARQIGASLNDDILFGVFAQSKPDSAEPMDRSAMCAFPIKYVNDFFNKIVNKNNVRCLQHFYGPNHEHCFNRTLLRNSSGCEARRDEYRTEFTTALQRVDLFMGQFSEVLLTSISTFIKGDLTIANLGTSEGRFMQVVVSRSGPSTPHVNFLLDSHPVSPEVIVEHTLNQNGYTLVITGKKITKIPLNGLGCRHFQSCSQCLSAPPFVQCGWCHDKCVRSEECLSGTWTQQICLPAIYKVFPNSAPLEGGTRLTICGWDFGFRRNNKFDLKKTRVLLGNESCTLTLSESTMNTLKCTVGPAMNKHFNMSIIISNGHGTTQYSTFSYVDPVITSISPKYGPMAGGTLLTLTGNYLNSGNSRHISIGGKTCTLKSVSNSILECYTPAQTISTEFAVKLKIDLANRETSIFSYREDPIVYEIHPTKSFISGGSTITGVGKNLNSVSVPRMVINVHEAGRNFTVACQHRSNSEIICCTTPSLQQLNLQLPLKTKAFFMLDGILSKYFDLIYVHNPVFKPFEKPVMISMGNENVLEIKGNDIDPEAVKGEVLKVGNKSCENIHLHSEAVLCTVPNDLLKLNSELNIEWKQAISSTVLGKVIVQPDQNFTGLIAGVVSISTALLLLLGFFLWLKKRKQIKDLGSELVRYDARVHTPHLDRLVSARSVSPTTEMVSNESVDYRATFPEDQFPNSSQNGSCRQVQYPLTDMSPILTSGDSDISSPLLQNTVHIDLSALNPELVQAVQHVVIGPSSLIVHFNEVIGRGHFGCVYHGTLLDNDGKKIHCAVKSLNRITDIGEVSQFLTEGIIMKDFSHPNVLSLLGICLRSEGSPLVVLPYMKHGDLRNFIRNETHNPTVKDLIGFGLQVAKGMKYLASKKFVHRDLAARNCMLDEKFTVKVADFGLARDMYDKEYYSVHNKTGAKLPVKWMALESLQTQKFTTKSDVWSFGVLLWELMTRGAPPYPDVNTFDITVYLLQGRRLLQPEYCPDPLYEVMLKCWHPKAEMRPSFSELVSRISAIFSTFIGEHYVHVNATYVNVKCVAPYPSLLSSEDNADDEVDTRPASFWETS", "description": "(§1) In this example, the compound prepared in Example 10, N1-[4-[[7-[[1-(diethoxyphosphorylmethyl)-4-piperidinyl]methoxyl]-6-methoxyl-4-quinolyl]oxyl]-3-fluorophenyl]-N1′-(4-fluorophenyl)cyclopropane-1,1-dicarboxamide is tested for the inhibitory effect in the 442-kinase panel of KinomeScan™ (www.kinomescan.com) from DiscoveRx Corporation (4215 Sorrento Valley Blvd, San Diego, Calif. 92121) at 1000 nM of the compound concentration, the results are shown in the following Table 5:\n(§2) For the detailed information of the screening technique, see Fabian, M. A. et al, Nat., Biotechnol. 2005, 23, 329 and Karaman, M. W. et al, Nat., Biotechnol. 2008, 26, 127. It can be seen from the following representative results that, the compound according to the present invention has significant inhibitory effect on kinases including c-Met, KDR or VEGFR2, RET, PDGFR-β, c-KIT, Flt3, MEK5, DDR1, LOK, CSF1R, EPHA7, EPHA8, EPHB6, MKNK2, BLK, HIPK4, HCK, Flt4 and the mutants thereof"}, "[2]": {"molecular_target": "T2, RIPK2 (Homo sapiens, UniProt O43353)", "T2 construct": "purchased DiscoveRx Corporation", "description": "as §1, §2"}, "[3]": {"molecular_target": "T3, GSK3B (Homo sapiens, UniProt P49841)", "T3 construct": "purchased DiscoveRx Corporation (KinomeScan)", "description": "as §1, §2"}, "[4]": {"molecular_target": "T4, TBK1 (Homo sapiens, UniProt Q9UHD2)", "T4 construct": "purchased DiscoveRx Corporation (KinomeScan)", "description": "as §1, §2"}, "[5]": {"molecular_target": "T5, BRSK1 (Homo sapiens, UniProt Q8TDC3)", "T5 construct": "purchased DiscoveRx Corporation (KinomeScan)", "description": "as §1, §2"}, "[6]": {"molecular_target": "T6, EGFR(L747-E749del,A750P) (Homo sapiens, UniProt P00533, A750P/DEL747-749)", "T6 construct": "purchased DiscoveRx Corporation (KinomeScan)", "description": "as §1, §2"}, "[7]": {"molecular_target": "T7, SRPK3 (Homo sapiens, UniProt Q9UPE1)", "T7 construct": "purchased DiscoveRx Corporation (KinomeScan)", "description": "as §1, §2"}, "[8]": {"molecular_target": "T8, CAMK1D (Homo sapiens, UniProt Q8IU85)", "T8 construct": "purchased DiscoveRx Corporation (KinomeScan)", "description": "as §1, §2"}, "[9]": {"molecular_target": "T9, CASK (Homo sapiens, UniProt O14936)", "T9 construct": "purchased DiscoveRx Corporation (KinomeScan)", "description": "as §1, §2"}, "[10]": {"molecular_target": "T10, IKK-alpha (Homo sapiens, UniProt O15111)", "T10 construct": "purchased DiscoveRx Corporation (KinomeScan)", "description": "as §1, §2"}, "[11]": {"molecular_target": "T11, PFTAIRE2 (Homo sapiens, UniProt Q96Q40)", "T11 construct": "purchased DiscoveRx Corporation (KinomeScan)", "description": "as §1, §2"}, "[12]": {"molecular_target": "T12, PAKC-alpha (Homo sapiens, UniProt P17612)", "T12 construct": "purchased DiscoveRx Corporation (KinomeScan)", "description": "as §1, §2"}, "[13]": {"molecular_target": "T13, EGFR(L747-S752del,P753S) (Homo sapiens, UniProt P00533, DEL747-752/P753S)", "T13 construct": "purchased DiscoveRx Corporation (KinomeScan)", "description": "as §1, §2"}, "[14]": {"molecular_target": "T14, HIPK2 (Homo sapiens, UniProt Q9H2X6)", "T14 construct": "purchased DiscoveRx Corporation (KinomeScan)", "description": "as §1, §2"}, "[15]": {"molecular_target": "T15, TGFBR2 (Homo sapiens, UniProt P37173)", "T15 construct": "purchased DiscoveRx Corporation (KinomeScan)", "description": "as §1, §2"}, "[16]": {"molecular_target": "T16, ACVR2B (Homo sapiens, UniProt Q13705)", "T16 construct": "purchased DiscoveRx Corporation (KinomeScan)", "description": "as §1, §2"}, "[17]": {"molecular_target": "T17, NEK6 (Homo sapiens, UniProt Q9HC98)", "T17 construct": "purchased DiscoveRx Corporation (KinomeScan panel)", "description": "as §1, §2"}, "[18]": {"molecular_target": "T18, CDK3 (Homo sapiens, UniProt Q00526)", "T18 construct": "purchased DiscoveRx Corporation (KinomeScan)", "description": "as §1, §2"}, "[19]": {"molecular_target": "T19, CSK (Homo sapiens, UniProt P41240)", "T19 construct": "purchased DiscoveRx Corporation (KinomeScan)", "description": "as §1, §2"}, "[20]": {"molecular_target": "T20, MLK1 (Homo sapiens, UniProt P80192)", "T20 construct": "purchased DiscoveRx Corporation (KinomeScan)", "description": "as §1, §2"}, "[21]": {"molecular_target": "T21, MEK1 (Homo sapiens, UniProt Q02750)", "T21 construct": "purchased DiscoveRx Corporation (KinomeScan)", "description": "as §1, §2"}, "[22]": {"molecular_target": "T22, DYRK1B (Homo sapiens, UniProt Q9Y463)", "T22 construct": "purchased DiscoveRx Corporation (KinomeScan)", "description": "as §1, §2"}, "[23]": {"molecular_target": "T23, KIT(D816H) (Homo sapiens, UniProt P10721, D816H)", "T23 construct": "purchased DiscoveRx Corporation (KinomeScan)", "T23 sequence (P10721 26-976 D816H)": "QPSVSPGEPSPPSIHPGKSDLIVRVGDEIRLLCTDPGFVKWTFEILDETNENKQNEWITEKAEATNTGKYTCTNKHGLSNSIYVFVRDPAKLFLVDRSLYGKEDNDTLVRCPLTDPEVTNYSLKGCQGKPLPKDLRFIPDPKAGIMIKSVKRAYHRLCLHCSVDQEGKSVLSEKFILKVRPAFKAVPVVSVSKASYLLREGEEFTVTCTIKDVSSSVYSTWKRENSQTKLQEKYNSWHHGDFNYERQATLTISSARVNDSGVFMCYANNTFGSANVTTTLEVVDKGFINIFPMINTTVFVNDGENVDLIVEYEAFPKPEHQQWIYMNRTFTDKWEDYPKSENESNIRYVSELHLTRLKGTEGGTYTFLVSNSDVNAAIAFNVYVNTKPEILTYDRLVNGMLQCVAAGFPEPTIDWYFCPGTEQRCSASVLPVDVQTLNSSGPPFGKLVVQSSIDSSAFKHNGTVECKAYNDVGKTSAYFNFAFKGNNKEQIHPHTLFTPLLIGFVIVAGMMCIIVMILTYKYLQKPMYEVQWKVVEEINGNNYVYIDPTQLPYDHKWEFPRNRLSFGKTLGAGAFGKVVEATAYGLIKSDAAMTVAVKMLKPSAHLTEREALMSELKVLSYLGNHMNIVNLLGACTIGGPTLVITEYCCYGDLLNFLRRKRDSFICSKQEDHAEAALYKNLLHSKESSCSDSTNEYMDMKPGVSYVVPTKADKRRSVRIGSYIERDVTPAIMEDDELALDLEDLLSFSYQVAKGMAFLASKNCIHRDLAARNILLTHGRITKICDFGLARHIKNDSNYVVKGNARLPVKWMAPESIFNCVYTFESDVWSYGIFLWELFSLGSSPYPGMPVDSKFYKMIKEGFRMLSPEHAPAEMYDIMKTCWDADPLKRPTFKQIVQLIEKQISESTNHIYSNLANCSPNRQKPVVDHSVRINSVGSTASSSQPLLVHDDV", "description": "as §1, §2"}, "[24]": {"molecular_target": "T24, KIT (Homo sapiens, UniProt P10721)", "T24 construct": "purchased DiscoveRx Corporation (KinomeScan)", "T24 sequence (P10721 26-976)": "as the sequence (P10721 26-976 D816H) above, with H791D counted along it", "description": "as §1, §2"}, "[25]": {"molecular_target": "T25, STK36 (Homo sapiens, UniProt Q9NRP7)", "T25 construct": "purchased DiscoveRx Corporation (KinomeScan)", "description": "as §1, §2"}, "[26]": {"molecular_target": "T26, PIM2 (Homo sapiens, UniProt Q9P1W9)", "T26 construct": "purchased DiscoveRx Corporation (KinomeScan)", "description": "as §1, §2"}, "[27]": {"molecular_target": "T27, TSSK1B (Homo sapiens, UniProt Q9BXA7)", "T27 construct": "purchased DiscoveRx Corporation (KinomeScan)", "description": "as §1, §2"}, "[28]": {"molecular_target": "T28, DMPK2 (Homo sapiens, UniProt Q6DT37)", "T28 construct": "purchased DiscoveRx Corporation (KinomeScan)", "description": "as §1, §2"}, "[29]": {"molecular_target": "T29, KIT(V559D, T670I) (Homo sapiens, UniProt P10721, T670I/V559D)", "T29 construct": "purchased DiscoveRx Corporation (KinomeScan)", "T29 sequence (P10721 26-976 V559D/T670I)": "as the sequence (P10721 26-976 D816H) above, with V534D, T645I, H791D counted along it", "description": "as §1, §2"}, "[30]": {"molecular_target": "T30, FLT3(D835H) (Homo sapiens, UniProt P36888, D835H)", "T30 construct": "purchased DiscoveRx Corporation (KinomeScan)", "description": "as §1, §2"}, "[31]": {"molecular_target": "T31, TLK1 (Homo sapiens, UniProt Q9UKI8)", "T31 construct": "purchased DiscoveRx Corporation (KinomeScan)", "T31 sequence (Q9UKI8 whole entry)": "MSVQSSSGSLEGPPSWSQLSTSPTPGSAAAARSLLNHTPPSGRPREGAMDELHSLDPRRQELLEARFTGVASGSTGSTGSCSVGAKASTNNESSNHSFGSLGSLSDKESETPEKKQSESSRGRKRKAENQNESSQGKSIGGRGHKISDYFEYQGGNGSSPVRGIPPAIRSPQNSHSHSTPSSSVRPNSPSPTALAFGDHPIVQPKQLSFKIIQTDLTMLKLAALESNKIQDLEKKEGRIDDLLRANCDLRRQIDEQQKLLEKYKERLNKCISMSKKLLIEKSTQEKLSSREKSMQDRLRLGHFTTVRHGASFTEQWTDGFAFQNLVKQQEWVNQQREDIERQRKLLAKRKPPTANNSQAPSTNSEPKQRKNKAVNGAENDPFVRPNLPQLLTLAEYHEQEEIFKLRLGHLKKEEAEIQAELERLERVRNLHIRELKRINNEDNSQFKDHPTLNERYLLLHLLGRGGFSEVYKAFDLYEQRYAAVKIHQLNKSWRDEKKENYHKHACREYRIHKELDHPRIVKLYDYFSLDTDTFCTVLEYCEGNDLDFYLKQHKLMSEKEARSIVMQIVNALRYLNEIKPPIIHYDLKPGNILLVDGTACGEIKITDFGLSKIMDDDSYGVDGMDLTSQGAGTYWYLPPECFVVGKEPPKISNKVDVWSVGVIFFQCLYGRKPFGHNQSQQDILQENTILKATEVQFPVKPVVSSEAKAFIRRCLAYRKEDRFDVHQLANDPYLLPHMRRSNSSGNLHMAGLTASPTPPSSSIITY", "description": "as §1, §2"}, "[32]": {"molecular_target": "T32, ADCK3 (Homo sapiens, UniProt Q8NI60)", "T32 construct": "purchased DiscoveRx Corporation (KinomeScan)", "T32 sequence (Q8NI60 163-647)": "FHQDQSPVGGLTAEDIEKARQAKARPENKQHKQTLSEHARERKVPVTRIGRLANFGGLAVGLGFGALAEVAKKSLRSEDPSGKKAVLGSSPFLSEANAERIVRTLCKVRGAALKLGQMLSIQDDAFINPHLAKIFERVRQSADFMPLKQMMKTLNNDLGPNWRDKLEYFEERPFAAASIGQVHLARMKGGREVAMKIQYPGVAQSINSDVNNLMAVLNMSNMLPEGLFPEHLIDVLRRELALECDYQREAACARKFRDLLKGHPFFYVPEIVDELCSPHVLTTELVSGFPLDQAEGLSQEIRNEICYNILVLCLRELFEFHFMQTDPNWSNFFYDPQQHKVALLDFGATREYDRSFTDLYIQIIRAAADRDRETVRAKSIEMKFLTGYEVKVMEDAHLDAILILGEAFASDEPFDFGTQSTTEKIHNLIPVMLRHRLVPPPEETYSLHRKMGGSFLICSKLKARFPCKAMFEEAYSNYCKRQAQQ", "description": "as §1, §2"}, "[33]": {"molecular_target": "T33, ASK2 (Homo sapiens, UniProt O95382)", "T33 construct": "purchased DiscoveRx Corporation (KinomeScan)", "T33 sequence (O95382 whole entry)": "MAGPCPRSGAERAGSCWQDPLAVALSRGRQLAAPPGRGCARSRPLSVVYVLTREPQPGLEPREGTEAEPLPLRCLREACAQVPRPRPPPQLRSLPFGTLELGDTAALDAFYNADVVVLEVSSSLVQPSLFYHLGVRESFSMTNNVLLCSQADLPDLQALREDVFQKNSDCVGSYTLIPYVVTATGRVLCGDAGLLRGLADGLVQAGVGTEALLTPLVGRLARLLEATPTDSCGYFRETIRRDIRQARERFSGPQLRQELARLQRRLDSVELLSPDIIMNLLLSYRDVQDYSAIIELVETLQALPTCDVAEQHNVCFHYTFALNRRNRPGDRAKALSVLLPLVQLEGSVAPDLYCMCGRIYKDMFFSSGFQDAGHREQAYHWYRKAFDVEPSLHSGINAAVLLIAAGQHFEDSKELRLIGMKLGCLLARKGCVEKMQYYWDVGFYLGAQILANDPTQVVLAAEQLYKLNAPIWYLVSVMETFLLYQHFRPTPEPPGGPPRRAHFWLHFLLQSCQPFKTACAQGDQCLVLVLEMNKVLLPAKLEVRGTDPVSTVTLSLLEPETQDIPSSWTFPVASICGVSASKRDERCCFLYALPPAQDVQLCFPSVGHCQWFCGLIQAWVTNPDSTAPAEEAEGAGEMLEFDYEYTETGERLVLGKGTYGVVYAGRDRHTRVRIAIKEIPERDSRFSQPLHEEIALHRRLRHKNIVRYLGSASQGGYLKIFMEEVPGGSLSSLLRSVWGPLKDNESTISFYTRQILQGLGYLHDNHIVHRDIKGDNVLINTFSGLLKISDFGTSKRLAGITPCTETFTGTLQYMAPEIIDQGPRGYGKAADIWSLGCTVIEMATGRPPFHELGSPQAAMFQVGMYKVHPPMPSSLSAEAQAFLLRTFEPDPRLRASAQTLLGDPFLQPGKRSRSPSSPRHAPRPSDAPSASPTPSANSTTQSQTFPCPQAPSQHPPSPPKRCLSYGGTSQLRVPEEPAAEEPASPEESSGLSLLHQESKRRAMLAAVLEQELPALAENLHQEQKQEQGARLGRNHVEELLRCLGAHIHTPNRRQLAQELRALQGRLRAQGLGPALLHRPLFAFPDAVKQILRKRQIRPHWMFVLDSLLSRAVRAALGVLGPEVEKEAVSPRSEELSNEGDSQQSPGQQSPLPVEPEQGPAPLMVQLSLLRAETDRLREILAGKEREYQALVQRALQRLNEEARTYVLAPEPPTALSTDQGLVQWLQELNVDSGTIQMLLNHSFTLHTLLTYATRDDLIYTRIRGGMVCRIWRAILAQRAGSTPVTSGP", "description": "as §1, §2"}, "[34]": {"molecular_target": "T34, MKK7 (Homo sapiens, UniProt O14733)", "T34 construct": "purchased DiscoveRx Corporation (KinomeScan)", "description": "as §1, §2"}, "[35]": {"molecular_target": "T35, CDK11 (Homo sapiens, UniProt Q9BWU1)", "T35 construct": "purchased DiscoveRx Corporation (KinomeScan)", "description": "as §1, §2"}}, "data": [{"smiles": "CCOP(=O)(CN1CCC(COc2cc3nccc(Oc4ccc(NC(=O)C5(C(=O)Nc6ccc(F)cc6)CC5)cc4F)c3cc2OC)CC1)OCC", "note": "[Example 10, N1-[4-[[7-[[1-(diethoxyphosphorylmethyl)-4-piperidinyl]methoxyl]-6-methoxyl-4-quinolyl]oxyl]-3-fluorophenyl]-N1′-(4-fluorophenyl)cyclopropane-1,1-dicarboxamide]", "values": [{"measurement": "% Ctrl@1000 nM", "setting": "[1]", "result": 7.7, "unit": "% Ctrl"}, {"measurement": "% Ctrl@1000 nM", "setting": "[2]", "result": 30, "unit": "% Ctrl"}, {"measurement": "% Ctrl@1000 nM", "setting": "[3]", "result": 100, "unit": "% Ctrl"}, {"measurement": "% Ctrl@1000 nM", "setting": "[4]", "result": 79, "unit": "% Ctrl"}, {"measurement": "% Ctrl@1000 nM", "setting": "[5]", "result": 100, "unit": "% Ctrl"}, {"measurement": "% Ctrl@1000 nM", "setting": "[6]", "result": 67, "unit": "% Ctrl"}, {"measurement": "% Ctrl@1000 nM", "setting": "[7]", "result": 100, "unit": "% Ctrl"}, {"measurement": "% Ctrl@1000 nM", "setting": "[8]", "result": 96, "unit": "% Ctrl"}, {"measurement": "% Ctrl@1000 nM", "setting": "[9]", "result": 100, "unit": "% Ctrl"}, {"measurement": "% Ctrl@1000 nM", "setting": "[10]", "result": 100, "unit": "% Ctrl"}, {"measurement": "% Ctrl@1000 nM", "setting": "[11]", "result": 87, "unit": "% Ctrl"}, {"measurement": "% Ctrl@1000 nM", "setting": "[12]", "result": 100, "unit": "% Ctrl"}, {"measurement": "% Ctrl@1000 nM", "setting": "[13]", "result": 67, "unit": "% Ctrl"}, {"measurement": "% Ctrl@1000 nM", "setting": "[14]", "result": 100, "unit": "% Ctrl"}, {"measurement": "% Ctrl@1000 nM", "setting": "[15]", "result": 100, "unit": "% Ctrl"}, {"measurement": "% Ctrl@1000 nM", "setting": "[16]", "result": 100, "unit": "% Ctrl"}, {"measurement": "% Ctrl@1000 nM", "setting": "[17]", "result": 100, "unit": "% Ctrl"}, {"measurement": "% Ctrl@1000 nM", "setting": "[18]", "result": 100, "unit": "% Ctrl"}, {"measurement": "% Ctrl@1000 nM", "setting": "[19]", "result": 14, "unit": "% Ctrl"}, {"measurement": "% Ctrl@1000 nM", "setting": "[20]", "result": 83, "unit": "% Ctrl"}, {"measurement": "% Ctrl@1000 nM", "setting": "[21]", "result": 24, "unit": "% Ctrl"}, {"measurement": "% Ctrl@1000 nM", "setting": "[22]", "result": 86, "unit": "% Ctrl"}, {"measurement": "% Ctrl@1000 nM", "setting": "[23]", "result": 63, "unit": "% Ctrl"}, {"measurement": "% Ctrl@1000 nM", "setting": "[24]", "result": 0.2, "unit": "% Ctrl"}, {"measurement": "% Ctrl@1000 nM", "setting": "[25]", "result": 100, "unit": "% Ctrl"}, {"measurement": "% Ctrl@1000 nM", "setting": "[26]", "result": 67, "unit": "% Ctrl"}, {"measurement": "% Ctrl@1000 nM", "setting": "[27]", "result": 100, "unit": "% Ctrl"}, {"measurement": "% Ctrl@1000 nM", "setting": "[28]", "result": 76, "unit": "% Ctrl"}, {"measurement": "% Ctrl@1000 nM", "setting": "[29]", "result": 1.4, "unit": "% Ctrl"}, {"measurement": "% Ctrl@1000 nM", "setting": "[30]", "result": 0.6, "unit": "% Ctrl"}, {"measurement": "% Ctrl@1000 nM", "setting": "[31]", "result": 88, "unit": "% Ctrl"}, {"measurement": "% Ctrl@1000 nM", "setting": "[32]", "result": 67, "unit": "% Ctrl"}, {"measurement": "% Ctrl@1000 nM", "setting": "[33]", "result": 100, "unit": "% Ctrl"}, {"measurement": "% Ctrl@1000 nM", "setting": "[34]", "result": 100, "unit": "% Ctrl"}, {"measurement": "% Ctrl@1000 nM", "setting": "[35]", "result": 67, "unit": "% Ctrl"}]}]}
